This is an account of results in US20250109384A1, “A CELLULAR COMPOSITE” (ALCYOMICS LIMITED, priority 2022, published 2025).

Entries after “also recorded” stand apart in the source; their conditions may differ.

Data set [1] has as its system Y201 models and OA models. Nature of the data set: ELISA of MMP13 and ADAMTS4 in supernatant of modified models and OA models. The format is cell-based, human. Particulars: OA models vs models; for MMP13 concentration in supernatant (ELISA): coating or supplement. The procedure: (§1) To improve the overall quality of the model and encourage aggrecan deposition a range of separate coatings were applied to the 3D scaffold. The applied coatings were selected from human collagen type II, human hyaluronan and human aggrecan to empty 3D scaffolds. Specifically, COL-II was solubilised to 1 mg/mL in 0.5M acetic acid. Stock was diluted 1:500 in PBS and 10 uL layered onto each scaffold. Scaffolds were left to air dry overnight at 2-8 degrees. The next day scaffolds there gently washed in PBS and were ready for use. Hyaluronan was reconstituted into a 1% w/v stock in sterile water. 10 uL was added to each scaffold and left to polymerise at 37 degrees for 1 hour. Following this incubation scaffolds were ready to use. Aggrecan was reconstituted in PBS to create a 100ug/mL stock solution. This stock was used neat, with 10 uL added to each scaffold. Scaffolds were incubated at 37 degrees for several hours prior to use.
(§2) An independent modification was also made to the chondrogenic media. This involved the addition of the HAPLN1 link protein (SEQ ID NO: 1). Specifically, HAPLN1 stock solution was added to chondrogenic media at a working concentration of 100 ng/mL. The resulting medium composition (complete) is outlined in Table 1. L-Ascorbic acid-2-phosphate and HAPLN1 link protein have limited shelf life at 4° C. and so are added to aliquots of incomplete CDM (all components of Table 1 with the exception of L-Ascorbic acid-2-phosphate and HAPLN1 link protein) to create complete CDM on day 7. Preparation of HAPLN1 link protein (Cat #2608-HP RnD sytems) is as follows: • Unit concentration: 25 μg • Solvent: PBS • Reconstitution volume: 250 μl • Stock concentration: 100 μg/mL • Working concentration: 100 ng/mL • Use: 1:1000 dilution for working concentration. E.g. 50 μL of stock into 50 mL of media. • HAPLN1 is reportedly stable for 1 month at 4° C.
(§3) The resulting models were stimulated with cytokines using previously established protocols to create OA models. Following cytokine stimulation, the resulting OA models were harvested and analysed for q-PCR, and immunofluorescent (IF). The supernatant was also harvested and analysed using ELISAs and FRET assays. All analyses were conducted in triplicate.
(ELISA stands for enzyme-linked immunosorbent assay.)

In data set [2] the test system is Y201 models and OA models. Nature of the data set: Aggrecan / collagen II immunofluorescence (IHC) of models and OA models with coatings or media modification. The format is cell-based, human. As for the experimental part:
as §1, §2, §3

A further data set deals with Y201 OA models. In words: q-PCR of OA models with coated scaffolds or HAPLN1 modified chondrogenic media. The format is cell-based, human. The note with it: OA models (cytokine stimulated); for fold change of MMP13 gene expression: scaffold coating or media supplement. As for the experimental part:
as §1, §2, §3

The conditions of data set [3]: at 4° C.; cited from earlier work.
Where [4] appears, read: models not stimulated with cytokines.
The mark [5] stands for this setting: OA models (cytokine stimulated).

“Collagen type II: human collagen type II applied as coating to the 3D scaffold”: the “MMP13 concentration in supernatant (ELISA)” value (from here on “MMP13 concentration”) in data set [1] is “decrease in the levels of MMP13”. Also, the aggrecan staining entry in data set [2] (setting [4]) is given as “did not stain positively of aggrecan”. Besides, the ADAMTS5 gene expression entry in the data set on Y201 OA models (coated scaffolds) was “increase in expression of ADAMTS5”.

Hyaluronan: the “ADAMTS4 concentration in supernatant (ELISA)” value in data set [1] (coating) is on record as “increase in ADATS4 levels”. Moreover, the “MMP13 concentration” value in data set [1] is reported as “decrease in the levels of MMP13”. For the same molecule, the aggrecan staining result in data set [2] (setting [4]) is on record as “did not stain positively of aggrecan”. In the data set with Y201 OA models (coated scaffolds), the “gene expression profile vs uncoated OA models” value is listed as “comparable”.

Consider “aggrecan: human aggrecan applied as coating to the 3D scaffold”, for which the “MMP13 concentration” value in data set [1] is “increased MMP13 levels”. In addition, the values for the aggrecan staining entry in data set [2] (setting [5]) and in data set [2] (setting [4]) were “aggrecan was detected” and “did not stain for aggrecan”, respectively. In addition, in the data set with Y201 OA models, the “fold change of MMP13 gene expression” value is reported as about 19 fold.

B1: HAPLN1: hyaluronan and proteoglycan link protein 1 (SEQ ID NO: 1), added to chondrogenic media at 100 ng/mL (protein, listed as Homo sapiens)
chain: MKSLLLLVLISICWADHLSDNYTLDHDRAIHIQAENGPHLLVEAEQAKVFSHRGGNVTLPCKFYRDPTAFGSGIHKIRIKWTKLTSDYLKEVDVFVSMGYHKKTYGGYQGRVFLKGGSDSDASLVITDLTLEDYGRYKCEVIEGLEDDTVVVALDLQGVVFPYFPRLGRYNLNFHEAQQACLDQDAVIASFDQLYDAWRGGLDWCNAGWLSDGSVQYPITKPREPCGGQNTVPGVRNYGFWDKDKSRYDVFCFTSNFNGRFYYLIHPTKLTYDEAVQACLNDGAQIAKVGQIFAAWKILGYDRCDAGWLADGSVRYPISRPRRRCSPTEAAVRFVGFPDKKHKLYGVYCFRAYN
As to B1, in data set [1], the “MMP13 concentration” value is listed as “increased MMP13 levels”. Also, the stability in data set [3] is listed as 1 month. For the same molecule, in data set [2] (MSCs differentiated to chondrocytes in presence of HAPLN1), the “collagen II production (immunofluorescence)” value is “does not have a negative effect on collagen II production”. Besides, the aggrecan staining entry in data set [2] (setting [5]) is on record as “no staining of aggrecan”; in data set [2] (setting [4]), “did stain for aggrecan; also recorded: significant levels of ACAN protein”. In addition, the “fold change of MMP13 gene expression” value with Y201 OA models is listed as about 6 fold.
